In patent US12152049B2, “STING agonistic compound” (ONO PHARMACEUTICAL CO., LTD., priority 2018, dated 2024):
Counter-ions that a name gives are not always drawn.

Assays:
THP1-Dual cells = assay: Effects on THP1-Dual cells: activation of the IRF pathway (Quanti-luc luminescence); type: cell-based; conditions: Homo sapiens, incubation about 24 hours
Protocol: THP1-Dual cells (Invivogen) were suspended in RPMI medium to prepare 2×10^6 cells/mL of cell suspension. 50 μL of the cell suspensions were dispensed into a 96-well plate, to which 50 μL of 6 to 20,000 nmol/L compound solutions were added. After adding the compound, the mixture was incubated at 37° C. for about 24 hours. After incubation, 10 μL of cell suspensions were collected from the respective wells, which were mixed with 50 μL of Quanti-luc (Invivogen). Then, the activation of the IRF (Interferon regulatory factor) pathway was measured by detecting luminescence using a microplate reader (Molecular Devices).

THP1-Dual-STING KO cells = assay: Activity on THP1-Dual-STING KO cells: IRF pathway (Quanti-luc luminescence); type: cell-based; conditions: STING gene homozygous deficient THP1-Dual cells, 6 to 20,000 nM compound solutions, about 24 hours
Protocol: STING gene homozygous deficient THP1-Dual cells (THP1-Dual-STING KO cells (Invivogen) were suspended in RPMI medium to prepare 2×10^6 cells/mL cell suspension. 50 μL of cell suspensions were dispensed into a 96-well plate, to which 50 μL of 6 to 20,000 nM compound solutions were further added, followed by incubation at 37° C. for about 24 hours. 10 μL of the cell suspensions were collected from the respective wells, which were mixed with 50 μL of Quanti-luc (Invivogen), and then the activity of the IRF pathway was measured by detecting luminescence using a microplate reader.

IDO1 = target: T1, IDO1 (Homo sapiens, UniProt P14902); assay: Evaluation of IDO1 inhibitory activity (IDO1 Fluorogenic Inhibitor Screening Assay Kit); type: biochemical; conditions: compound solutions of 0.6, 2, 6, 20, 60 and 200 μmol/L added
T1 construct: His-tag; purchased BPS Bioscience
T1 sequence (P14902 whole entry): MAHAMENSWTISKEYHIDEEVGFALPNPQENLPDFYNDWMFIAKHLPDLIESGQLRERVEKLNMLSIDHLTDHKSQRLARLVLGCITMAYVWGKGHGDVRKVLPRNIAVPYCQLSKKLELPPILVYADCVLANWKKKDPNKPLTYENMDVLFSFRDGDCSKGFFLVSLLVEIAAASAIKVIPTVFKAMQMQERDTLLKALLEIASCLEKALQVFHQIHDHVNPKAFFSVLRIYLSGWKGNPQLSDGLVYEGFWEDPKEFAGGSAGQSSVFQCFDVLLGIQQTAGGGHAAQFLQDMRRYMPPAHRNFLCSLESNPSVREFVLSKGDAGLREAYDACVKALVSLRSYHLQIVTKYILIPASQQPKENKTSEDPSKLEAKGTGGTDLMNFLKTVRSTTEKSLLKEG
Protocol: The evaluation of IDO1 inhibitory activity was carried out using the IDO1 Fluorogenic Inhibitor Screening Assay Kit (BPS Bioscience). Specifically, IDO1 Fluorogenic Reaction Solution was dissolved, of which 180 μL were added to each well. Then, 10 μL of compounds at the respective concentrations of 0.6, 2, 6, 20, 60 and 200 μmol/L were added thereto. Further, after adding 10 μL of IDO1 His-Tag solution thereto, of which the mixtures were incubated at room temperature for 1 hour, and then 20 μL of Fluorescence Solution was added thereto, of which the mixtures were incubated at 37° C. for 4 hours. After standing them at room temperature for 10 minutes, the fluorescence was measured using a microplate reader (excitation: 400 nm, emission: 510 nm).

[1] = test system: BTK, KDR, each subtype of PKCα to ι, each CDK of CDK2 to 9, FAK, TIE2, RAF1 and BRAF; assay: Evaluation of inhibitory activity against various kinases (mobility shift, LabChip); type: biochemical; conditions: 4 μmol/L test substance solution (4 times the final concentration)
Protocol: 4 μmol/L of test substance solution (the compound of the present invention shown in Example 1) (at 4 times the final concentration) was prepared by dissolving it to the assay buffer (20 mmol/L HEPES, 0.01% Triton X-100, 1 mmol/L DTT, pH 7.5). 4 μmol/L of substrate/ATP/metal solution (at 4 times the final concentration) was prepared by dissolving them to the kit buffer (20 mmol/L HEPES, 0.01% Triton X-100, 5 mmol/L DTT, pH 7.5).
Various kinase solutions at twice the final concentration were prepared by dissolving them to the assay buffer. 5 μL of the test substance solution, 5 μL of the substrate/ATP/metal solution and 10 μL of the kinase solution were mixed in wells of a polypropylene 384-well plate, of which the mixture was reacted at room temperature for 1 to 5 hours. The reaction was stopped by adding 70 μL of the termination buffer (QuickScout Screening Assist MSA; Cama Biosciences). The substrate peptide and phosphorylated peptide in the reaction solution were separated and quantified by LabChip system (Perkin Elmer). The kinase reaction was evaluated by the product ratio (P/(P+S)) calculated from the peak height (S) of the substrate peptide and the peak height (P) of the phosphorylated peptide. The various kinases used for evaluation are as follows:
BTK, KDR, each subtype of PKCα to ι, each CDK of CDK2 to 9, FAK, TIE2, RAF1 and BRAF.

[2] = test system: mouse colon cancer cell line MC38; assay: Anti-tumor effect in tumor model bearing subcutaneous mouse colon cancer cell line MC38; type: in vivo, mice (C57/BL6); conditions: 3 mg/kg, administered 7 days after MC38 transplantation, measured until Day 26
Protocol: Colon cancer cell line MC38 derived from C57/BL6 mice were subcutaneously transplanted to right flank of syngeneic mice (C57/BL6, female, 6 weeks old (Charles River Japan)) (herein, the day of transplantation was Day 0) to prepare tumor mice bearing subcutaneous MC38. Seven days after transplantation, tumor mice bearing subcutaneous MC38 were grouped based on tumor volume, and used as the Vehicle group (n=8) and the compound administration group (3 mg/kg, n=6) shown in Example 1. The changes in tumor volume were continuously measured until the 26 days after transplantation (Day 26). The tumor volume was calculated by the following formula: [Tumor volume (mm^3)]=[major axis (mm)]×[minor axis (mm)]^2×0.5
Colon cancer cell line MC38 derived from C57/BL6 mice were subcutaneously transplanted to right flank of syngeneic mice (C57/BL6, female, 6 weeks old (Charles River Japan)) (herein, the day of transplantation was Day 0) to prepare tumor mice bearing subcutaneous MC38. They were grouped based on tumor volume 7 or 8 days after transplantation, to which the Vehicle (n=8 or 6) and the respective compounds of Examples 10 and 10(1) to 10(6) (1, 1, 1, 10, 3, 1 and 1 mg/kg, n=8 or 6) were administered. The changes in tumor volume were measured serially until the 28 or 30 days after transplantation (Day 28 or 30). The tumor volume was calculated from the formula shown in Example 16.

SMILES | EC50 (THP1-Dual cells) | also measured
COC(=O)c1cc(-c2ncc(-c3cn[nH]c3)c3onc(N)c23)c(F)cc1N [Example 1, methyl 2-amino-5-(3-amino-7-(1H-pyrazol-4-yl)isoxazolo[4,5-c]pyridin-4-yl)-4-fluorobenzoate] | 180 nM | IRF activating effect (THP1-Dual-STING KO cells): no IRF activating effect; IDO1 inhibitory activity (IDO1): did not show any IDO1 inhibitory activity; inhibitory activity against the evaluated kinases [1]: did not showed any significantly inhibit activities; tumor growth (tumor volume) [2]: almost completely suppressed the tumor growth
COc1cc(-c2ncc(-c3cn[nH]c3)c3onc(N)c23)c(F)cc1N [Example 2, 4-(4-amino-2-fluoro-5-methoxyphenyl)-7-(1H-pyrazol-4-yl)isoxazolo[4,5-c]pyridin-3-amine hydrochloride] | 1930 nM | –
CS(=O)(=O)c1cc(-c2ncc(-c3cn[nH]c3)c3onc(N)c23)c(F)cc1N [Example 4(3), 4-(4-amino-2-fluoro-5-(methylsulfonyl)phenyl)-7-(1H-pyrazol-4-yl)isoxazolo[4,5-c]pyridin-3-amine hydrochloride] | 950 nM | –
CC(=O)c1cc(-c2ncc(-c3cn[nH]c3)c3onc(N)c23)ccc1N [Example 4(9), 1-(2-amino-5-(3-amino-7-(1H-pyrazol-4-yl)isoxazolo[4,5-c]pyridin-4-yl)phenyl)ethan-1-one hydrochloride] | 130 nM | –
CNC(=O)c1cc(-c2ncc(-c3cn[nH]c3)c3onc(N)c23)ccc1N [Example 4(15), 2-amino-5-(3-amino-7-(1H-pyrazol-4-yl)isoxazolo[4,5-c]pyridin-4-yl)-N-methylbenzamide hydrochloride] | 100 nM | –
CSc1cc(-c2ncc(-c3cn[nH]c3)c3onc(N)c23)c(Cl)cc1N [Example 4(16), 4-(4-amino-2-chloro-5-(methylthio)phenyl)-7-(1H-pyrazol-4-yl)isoxazolo[4,5-c]pyridin-3-amine hydrochloride] | 1000 nM | –

Stronger by EC50 (THP1-Dual cells), values ahead:

EC50 (THP1-Dual cells) | SMILES | also measured
90 nM | CSc1cc(-c2ncc(-c3cn[nH]c3)c3onc(N)c23)c(F)cc1N [Example 4, 4-(4-amino-2-fluoro-5-(methylthio)phenyl)-7-(1H-pyrazol-4-yl)isoxazolo[4,5-c]pyridin-3-amine hydrochloride] | –
80 nM | NC(=O)c1cc(-c2ncc(-c3cn[nH]c3)c3onc(N)c23)c(F)cc1N [Example 4(5), 2-amino-5-(3-amino-7-(1H-pyrazol-4-yl)isoxazolo[4,5-c]pyridin-4-yl)-4-fluorobenzamide hydrochloride] | –
40 nM | CC(=O)c1cc(-c2ncc(-c3cn[nH]c3)c3onc(N)c23)c(F)cc1N [Example 3, 1-(2-amino-5-(3-amino-7-(1H-pyrazol-4-yl)isoxazolo[4,5-c]pyridin-4-yl)-4-fluorophenyl)ethan-1-one] | –
40 nM | CCOC(=O)c1cc(-c2ncc(-c3cn[nH]c3)c3onc(N)c23)c(F)cc1N [Example 4(6), ethyl 2-amino-5-(3-amino-7-(1H-pyrazol-4-yl)isoxazolo[4,5-c]pyridin-4-yl)-4-fluorobenzoate hydrochloride] | –
20 nM | CCC(=O)c1cc(-c2ncc(-c3cn[nH]c3)c3onc(N)c23)c(F)cc1N [Example 4(7), 1-(2-amino-5-(3-amino-7-(1H-pyrazol-4-yl)isoxazolo[4,5-c]pyridin-4-yl)-4-fluorophenyl)propan-1-one hydrochloride] | –
20 nM | CCNC(=O)c1cc(-c2ncc(-c3cn[nH]c3)c3onc(N)c23)c(F)cc1N [Example 4(8), 2-amino-5-(3-amino-7-(1H-pyrazol-4-yl)isoxazolo[4,5-c]pyridin-4-yl)-N-ethyl-4-fluorobenzamide hydrochloride] | –
